Test results: patent US10669284B2, “Fused thiazolopyrimidine derivatives as MNKS inhibitors” (LIFEARC, priority 2015, dated 2020)
Like-named read-outs stand apart in the source and are kept apart here.

Legend:
Full-length human MNK2 = biological target: T1, Full-length human MNK2 (Homo sapiens, UniProt Q9HBH9, T379D); assay: MNK2 biochemical IC50 assay (Caliper Mobility Shift Assay)
T1 construct: GST (N); purchased Carna Biosciences 02-146; host or cells: baculovirus expression system

Full-length human MNK1 = biological target: T2, Full-length human MNK1 (Homo sapiens, UniProt Q9BUB5, T385D); assay: MNK1 biochemical IC50 assay (Caliper Mobility Shift Assay); details: read-out: P(IC50) MNK1 (converted)
T2 construct: GST (N); purchased Carna Biosciences 02-145; host or cells: baculovirus expression system

[1] = system: phosphorylation of eIF4E at ser209 in MV4.11 cell line; assay: MNK cellular activity phospho-eIF4E detection assay (Alphascreen Surefire); assay type: cell-based; details: Homo sapiens
Procedure, shortened: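 AlphaScreen SureFire sandwich-immunoassay readout of phospho-eIF4E Ser209 in lysed MV4.11 cells; acceptor then donor beads, each 1.5 hr at room temperature. Signal normalised to untreated DMSO-only controls; duplicate curves, values averaged over at least 2 independent experiments.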

[2] = read-out: P(IC50) MNK2 (converted)
[3] = MV4.11 cell line, phospho-eIF4E (ser209) Alphascreen Surefire, read-out: P(IC50) elF4E (converted)

T1 sequence (Q9HBH9 whole entry T379D): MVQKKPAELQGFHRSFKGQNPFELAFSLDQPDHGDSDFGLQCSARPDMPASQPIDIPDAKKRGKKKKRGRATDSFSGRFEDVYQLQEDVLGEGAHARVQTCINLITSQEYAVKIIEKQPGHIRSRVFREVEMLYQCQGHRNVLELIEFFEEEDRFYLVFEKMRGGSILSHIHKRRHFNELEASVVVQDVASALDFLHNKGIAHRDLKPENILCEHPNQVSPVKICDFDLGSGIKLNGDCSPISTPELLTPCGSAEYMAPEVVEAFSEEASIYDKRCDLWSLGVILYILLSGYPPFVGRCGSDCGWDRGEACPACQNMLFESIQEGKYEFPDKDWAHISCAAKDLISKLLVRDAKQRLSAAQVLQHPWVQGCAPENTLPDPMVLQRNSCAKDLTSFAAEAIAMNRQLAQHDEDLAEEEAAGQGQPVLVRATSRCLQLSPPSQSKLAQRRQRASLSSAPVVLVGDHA
T2 sequence (Q9BUB5 1-424 isoform Q9BUB5-2 T344D): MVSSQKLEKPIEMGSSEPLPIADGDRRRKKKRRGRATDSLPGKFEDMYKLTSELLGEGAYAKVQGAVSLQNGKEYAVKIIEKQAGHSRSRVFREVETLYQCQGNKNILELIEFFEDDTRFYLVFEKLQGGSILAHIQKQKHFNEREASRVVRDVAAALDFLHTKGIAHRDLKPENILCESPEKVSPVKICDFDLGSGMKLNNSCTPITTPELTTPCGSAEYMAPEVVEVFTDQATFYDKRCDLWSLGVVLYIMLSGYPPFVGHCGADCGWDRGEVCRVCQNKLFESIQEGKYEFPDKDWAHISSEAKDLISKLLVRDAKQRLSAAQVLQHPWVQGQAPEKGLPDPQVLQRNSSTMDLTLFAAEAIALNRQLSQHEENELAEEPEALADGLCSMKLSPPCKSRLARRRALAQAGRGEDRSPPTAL

SMILES	IC50 (Full-length human MNK2; [2])	IC50 (Full-length human MNK1)	IC50 [1, 3]	IC50 (Full-length human MNK2)	IC50 ([1]; MV4-11, read-out: P(IC50) elF4E)
CNCCC1(C)CN(c2ncnc3sc(C(=O)NC4CCOCC4)nc23)c2ccccc21 (stereo not drawn) [Example 118, 7-[3-Methyl-3-[2-(methylamino)ethyl]indolin-1-yl]-N-tetrahydropyran-4-yl-thiazolo[5,4-d]pyrimidine-2-carboxamide]	0.158 µM	0.126 µM	0.251 µM	–	–
CC(C)Oc1cc(F)ccc1Nc1ncnc2sc(C(=O)NCCC(=O)O)nc12 [Example 14, 3-[[7-(4-fluoro-2-isopropoxy-anilino)thiazolo[5,4-d]pyrimidine-2-carbonyl]amino]propanoic acid]	0.0794 µM	0.158 µM	0.398 µM	–	–
O=C(NCC1CCNCC1)c1nc2c(N3CCOc4cc(F)ccc43)ncnc2s1 [Example 56, 7-(7-fluoro-2,3-dihydro-1,4-benzoxazin-4-yl)-N-(4-piperidylmethyl)thiazolo[5,4-d]pyrimidine-2-carboxamide]	0.794 µM	1 µM	0.794 µM	–	–
CNCCCNC(=O)c1nc2c(N3CC(C)(C)c4ccccc43)ncnc2s1 [Example 159]	0.00316 µM	0.00501 µM	0.00501 µM	–	–
CC(C)Oc1cc(F)ccc1Nc1ncnc2sc(C(=O)NC3CCN(C)CC3)nc12 [Example 32, 7-{[4-fluoro-2-(propan-2-yloxy)phenyl]amino}-N-(1-methylpiperidin-4-yl)[1,3]thiazolo[5,4-d]pyrimidine-2-carboxamide]	0.0398 µM	0.0501 µM	0.0398 µM	–	–
CC(C)Oc1cc(F)ccc1Nc1ncnc2sc(C(=O)NC3CC4CCC(C3)N4)nc12 (stereo not drawn) [Example 5, N-(8-azabicyclo[3.2.1]octan-3-yl)-7-(4-fluoro-2-isopropoxy-anilino)thiazolo[5,4-d]pyrimidine-2-carboxamide]	0.0794 µM	0.158 µM	0.1 µM	–	–
CO[C@H]1CCC[C@@H](Oc2cc(F)ccc2Nc2ncnc3sc(C(=O)NCC4CCNCC4)nc23)C1 [Example 60, 7-[4-fluoro-2-[(1R,3S)-3-methoxycyclohexoxy]anilino]-N-(4-piperidylmethyl)thiazolo[5,4-d]pyrimidine-2-carboxamide]	1 µM	0.794 µM	0.631 µM	–	–
O=C(NCC1CCNCC1)c1nc2c(N3CCc4cc(C(F)(F)F)ccc43)ncnc2s1 [Example 145]	0.1 µM	0.126 µM	0.501 µM	–	–
CC1(C)CN(c2ncnc3sc(C(=O)NCCCO)nc23)c2ccccc21 [Example 163]	0.00398 µM	0.01 µM	0.00501 µM	–	–
CN(C)CCCNC(=O)c1nc2c(Nc3ccc(F)cc3OC3CCCC3)ncnc2s1 [Example 22, 7-[2-(Cyclopentoxy)-4-fluoro-anilino]-N-[3-(dimethylamino)propyl]thiazolo[5,4-d]pyrimidine-2-carboxamide]	0.0631 µM	0.1 µM	0.0631 µM	–	–
O=C(Nc1nc2c(N3CCc4cc(F)ccc43)ncnc2s1)C1CCOC1 (stereo not drawn) [Example 84, N-(7-(5-Fluoroindolin-1-yl)thiazolo[5,4-d]pyrimidin-2-yl)tetrahydrofuran-3-carboxamide]	0.00501 µM	0.00398 µM	0.0501 µM	–	–
CCOc1cc(F)ccc1Nc1ncnc2sc(C(=O)NCCCN(C)C)nc12 [Example 24, N-[3-(Dimethylamino)propyl]-7-(2-ethoxy-4-fluoro-anilino)thiazolo[5,4-d]pyrimidine-2-carboxamide]	0.1 µM	0.1 µM	0.0794 µM	–	–
O=C(NCC1CCNCC1)c1nc2c(N3CC(CO)c4ccccc43)ncnc2s1 (stereo not drawn) [Example 135, 7-[3-(Hydroxymethyl)indolin-1-yl]-N-(4-piperidylmethyl)thiazolo[5,4-d]pyrimidine-2-carboxamide]	0.00794 µM	0.01 µM	0.0316 µM	–	–
CN(C)CCCNC(=O)c1nc2c(Nc3ccc(F)cc3O[C@@H]3CCCC[C@H]3O)ncnc2s1 [Example 15, N-[3-(dimethylamino)propyl]-7-[4-fluoro-2-[(1R,2R)-2-hydroxycyclohexoxy]anilino]thiazolo[5,4-d]pyrimidine-2-carboxamide]	0.631 µM	0.794 µM	0.251 µM	–	–
CN1CCC(CNC(=O)c2nc3c(N4CCc5cccc(F)c54)ncnc3s2)CC1 [Example 93, 7-(7-fluoroindolin-1-yl)-N-[(1-methyl-4-piperidyl)methyl]thiazolo [5,4-d]pyrimidine-2-carboxamide]	0.158 µM	0.2 µM	0.251 µM	–	–
CC1(C)CN(c2ncnc3sc(C(=O)NCC4CCNCC4)nc23)c2ccccc21 [Example 161]	–	0.00316 µM	–	0.00251 µM	0.00316 µM

SMILES	IC50 (Full-length human MNK2; [2])	IC50 (Full-length human MNK1)	IC50 [1, 3]	IC50 (Full-length human MNK2)	IC50 ([1]; MV4-11, read-out: P(IC50) elF4E)
CN1CCC2(CC1)CN(c1ncnc3sc(C(=O)NC4CCOCC4)nc13)c1ccccc12 [Example 40, 7-(1′-Methylspiro[indole-3,4′-piperidin]-1(2H)-yl)-N-(tetrahydro-2H-pyran-4-yl)[1,3]thiazolo[5,4-d]pyrimidine-2-carboxamide]	0.02 µM	0.0126 µM	0.0501 µM	–	–
O=C(NCC1CCNCC1)c1nc2c(N3CC(CCO)c4ccccc43)ncnc2s1 (stereo not drawn) [Example 136]	0.00501 µM	0.00794 µM	0.00631 µM	–	–
CC(C)Oc1cc(F)ccc1Nc1ncnc2sc(C(=O)N3CCC(CCO)CC3)nc12 [Example 11, [7-(4-fluoro-2-isopropoxy-anilino)thiazolo[5,4-d]pyrimidin-2-yl]-[4-(2 hydroxyethyl)-1-piperidyl]methanone]	0.316 µM	0.398 µM	0.316 µM	–	–
CC(C)Oc1c(F)cccc1Nc1ncnc2sc(C(=O)NCCCN(C)C)nc12 [Example 18, N-[3-(dimethylamino)propyl]-7-(3-fluoro-2-isopropoxy-anilino)thiazolo[5,4-d]pyrimidine-2-carboxamide]	0.0501 µM	0.0501 µM	0.0398 µM	–	–
C[C@@H]1Cc2ccccc2N1c1ncnc2sc(C(=O)NC3CCNCC3)nc12 [Example 129, 7-[(2R)-2-methylindolin-1-yl]-N-(4-piperidyl) thiazolo[5,4-d]pyrimidine-2-carboxamide]	0.0158 µM	0.0158 µM	0.0794 µM	–	–
O=C(NC1CCOCC1)c1nc2c(N3CC4(CCCC4)c4ccccc43)ncnc2s1 [Example 41, 7-(Spiro[cyclopentane-1,3′-indol]-1′(2′H)-yl)-N-(tetrahydro-2H-pyran-4-yl)[1,3]thiazolo[5,4-d]pyrimidine-2-carboxamide]	0.0126 µM	0.0251 µM	0.02 µM	–	–
CC1(C)CN(c2ncnc3sc(C(=O)NCCCN4CCCC4)nc23)c2ccccc21 [Example 160]	0.00631 µM	0.00631 µM	0.00794 µM	–	–
O=C(NC1CCOCC1)c1nc2c(N3CC(CCN4CCCC4)c4cc(F)ccc43)ncnc2s1 (stereo not drawn) [Example 149, 7-[5-fluoro-3-(2-pyrrolidin-1-ylethyl)indolin-1-yl]-N-tetrahydropyran-4-yl-thiazolo[5,4-d]pyrimidine-2-carboxamide]	0.0501 µM	0.0316 µM	0.0631 µM	–	–
CNCCNC(=O)c1nc2c(Nc3ccc(F)cc3OC(C)C)ncnc2s1 [Example 30, 7-{[4-Fluoro-2-(propan-2-yloxy)phenyl]amino}-N-[2-(methylamino)ethyl][1,3]thiazolo[5,4-d]pyrimidine-2-carboxamide]	0.126 µM	0.2 µM	0.1 µM	–	–
C[C@H]1Cc2ccccc2N1c1ncnc2sc(C(=O)NC3CCNCC3)nc12 [Example 132, 7-[(2S)-2-methylindolin-1-yl]-N-(4-piperidyl) thiazolo[5,4-d]pyrimidine-2-carboxamide]	0.0158 µM	0.02 µM	0.0251 µM	–	–
CN1CCN(CCC2CN(c3ncnc4sc(C(=O)NC5CCOCC5)nc34)c3ccc(F)cc32)CC1 (stereo not drawn) [Example 150, 7-[5-fluoro-3-[2-(4-methylpiperazin-1-yl)ethyl]indolin-1-yl]-N-tetrahydropyran-4-yl-thiazolo[5,4-d]pyrimidine-2-carboxamide]	0.0631 µM	0.0631 µM	0.0251 µM	–	–
CN(C)CCCOc1nc2c(N3CCc4cc(F)ccc43)ncnc2s1 [Example 89, 3-((7-(5-Fluoroindolin-1-yl)thiazolo[5,4-d]pyrimidin-2-yl)oxy)-N,N-dimethylpropan-1-amine]	0.0631 µM	0.0398 µM	0.2 µM	–	–
CC(C)Oc1cc(F)ccc1Nc1ncnc2sc(C(=O)NC3CCS(=O)(=O)CC3)nc12 [Example 34, N-(1,1-dioxidotetrahydro-2H-thiopyran-4-yl)-7-{[4-fluoro-2-(propan-2-yloxy)phenyl]amino}[1,3]thiazolo[5,4-d]pyrimidine-2-carboxamide]	0.158 µM	0.2 µM	0.0794 µM	–	–
O=C(NC1CCOCC1)c1nc2c(N3CCc4cc(O)ccc43)ncnc2s1 [Example 114, 7-(5-hydroxyindolin-1-yl)-N-tetrahydropyran-4-yl-thiazolo[5,4-d]pyrimidine-2-carboxamide]	0.00251 µM	0.00251 µM	0.00158 µM	–	–
CC1(C)CN(C(=O)c2nc3c(N4CCc5ccccc54)ncnc3s2)CCO1 [Example 102, (2,2-dimethylmorpholin-4-yl)-(7-indolin-1-ylthiazolo[5,4-d]pyrimidin-2-yl)methanone]	0.2 µM	0.158 µM	0.631 µM	–	–
CC(C)Oc1cc(F)ccc1Nc1ncnc2sc(C(=O)NCCN(C)C)nc12 [Example 39, N-[2-(dimethylamino)ethyl]-7-{[4-fluoro-2-(propan-2-yloxy)phenyl]amino}[1,3]thiazolo[5,4-d]pyrimidine-2-carboxamide]	0.126 µM	0.158 µM	0.0631 µM	–	–
